Tests used:
Ornithine Decarboxylase [1] = conditions: prior-art epoxides; ODC induction in mouse epidermis by tumor-promoting phorbol esters; cited from earlier work
Ornithine Decarboxylase [2] = assay: Inhibition of induction of ornithine decarboxylase (ODC assay) by 12-O-tetradecanoylphorbol-13-acetate in mouse skin; assay type: in vivo; conditions: topical, 1 hour before TPA (17 nmol), CD-1 mice
Experimental: (§1) The ODC assay measures a compound's effect on the prevention of the induction of ODC. The tracheal organ culture assay measures a compound's ability to reverse keratinization. For comparison purposes retinoic acid was also tested by these assays.
The ODC assay is carried out as follows. Female Charles River CD-1 mice from Charles River Breeding Laboratories, Wilmington, Mass., are used (age 7 to 9 weeks). The dorsal hair of the mice is shaved 1 to 2 days before testing, and only mice showing no hair regrowth are used. […] The mice are killed by cervical dislocation five hours after TPA treatment. Determinations are done in triplicate.
The epidermis is obtained from the sacrificed animals. To obtain sufficient material, the dorsal skins from 2 to 3 mice in each treatment group are pooled. The depilatory agent Nudit® (Helena Rubinstein, New York) is applied to the shaved area of the skin; after 5 minutes, it is washed off thoroughly with cold tap water. Then the skin is excised and plunged immediately into ice-cold water; it is then placed in a 55° C. water bath for 30 seconds and reimmersed in ice-cold water for at least another 30 seconds.
The supernatant fraction remaining after centrifugation of the homogenate at 10,000×g for 30 seconds at 0° C. is used for the enzyme assay. Enzyme activity is determined using the microassay for ODC as described by Verma and Boutwell to measure the release of ^14 CO2 from DL-[1-^14 C]-ornithine (58 mCi/mmol) after incubation with the 10,000×g supernatant. The incubations are carried out by decanting, with a Pasteur pipette, 100 μL of the supernatant containing 100 to 120 μg of protein into two or three 15-mL Corex tubes in a shaking water bath at 37° C.

[3] = tested on: Hamster Tracheal Organ Culture; assay: Reversal of keratinization in hamster tracheal organ culture; assay type: cell-based
Experimental: as §1
The tracheal organ culture assay is carried out as follows. Tracheas are taken from hamsters that are in very early stages of vitamin A deficiency and placed in organ culture. At the time of culture, the animals are still gaining weight; the tracheal epithelium is generally low columnar or cuboidal, with only occasional patches of squamous metaplasia. […] All tracheas are grown in medium containing no retinoid for the first 3 days. […] Culture medium is changed three times a week, and all of the remaining tracheas are harvested at the end of 10 days in culture. Tracheas are fixed in 10% buffered formalin and embedded in paraffin.

Structure (SMILES)	biological activity in the ornithine decarboxylase (ODC) assay (Ornithine Decarboxylase [1])	% Inhibition of Control (inhibition of induction of ornithine decarboxylase by TPA in mouse skin) (Ornithine Decarboxylase [2]; dose 17 nmol)	Active Cultures (%) (reversal of keratinization) ([3]; conc 10^-8 M)	Active/Total Cultures (reversal of keratinization) ([3]; conc 10^-8 M)	Active Cultures (%) (reversal of keratinization) ([3]; conc 10^-9 M)	Active/Total Cultures (reversal of keratinization) ([3]; conc 10^-9 M)	Active Cultures (%) (reversal of keratinization) ([3]; conc 10^-10 M)	Active/Total Cultures (reversal of keratinization) ([3]; conc 10^-10 M)	Active Cultures (%) (reversal of keratinization) ([3]; conc 10^-11 M)	Active/Total Cultures (reversal of keratinization) ([3]; conc 10^-11 M)	% Inhibition of Control (inhibition of induction of ornithine decarboxylase by TPA in mouse skin) (Ornithine Decarboxylase [2]; dose 1.7 nmol)
CC(/C=C/C12OC1(C)CCCC2(C)C)=C\C=C\C(C)=C\C(=O)O (stereo not drawn) [5,6-epoxy-5,6-dihydroretinoic acid]	exhibited biological activity										
CCOC(=O)c1ccc(/C=C(\C)C=CC23OC2(C)CCCC3(C)C)cc1 (stereo not drawn) [(E)-1-(4-carbethoxy)-2-methyl-4-(1,2-epoxy-2,6,6,-trimethylcyclohex-1-yl)-1,3-butadiene]	exhibited biological activity										
CCOC(=O)c1ccc(/C=C(C)/C=C/C23CC2(C)CCCC3(C)C)cc1 (stereo not drawn) [(E)-1-(4-carbethoxyphenyl)-2-methyl-4-(2,2,6-trimethylbicyclo[4.1.0]hept-1-yl)-1,3-butadiene]		80%	100%	7/7	77%	10/13	29%	4/14	29%	2/7	
CC1=C(/C=C/C(C)=C/C=C/C(C)=C/C(=O)O)C(C)(C)CCC1 [(E)-retinoic acid, reference compound]			100%	236/236	88%	419/474	52%	134/256			87-91%
CCOC(=O)/C=C(C)/C=C/C=C(C)/C=C/C12CC1(C)CCCC2(C)C (stereo not drawn) [ethyl (E)-5,6-methano-5,6-dihydroretinoate]		70%	100%	7/7	79%	11/14	50%	7/14	29%	2/7	
